Several values for one entry are separate records, joined by “and”; a condition that tells them apart may be missing. Equal entries are not always repeated.
Target: T1, human TAS2R4 (Homo sapiens, UniProt Q9NYW5)
T1 construct: expressed in transfected cells; host or cells: HEK293T-Gα16gust44
T1 sequence (Q9NYW5 1-299): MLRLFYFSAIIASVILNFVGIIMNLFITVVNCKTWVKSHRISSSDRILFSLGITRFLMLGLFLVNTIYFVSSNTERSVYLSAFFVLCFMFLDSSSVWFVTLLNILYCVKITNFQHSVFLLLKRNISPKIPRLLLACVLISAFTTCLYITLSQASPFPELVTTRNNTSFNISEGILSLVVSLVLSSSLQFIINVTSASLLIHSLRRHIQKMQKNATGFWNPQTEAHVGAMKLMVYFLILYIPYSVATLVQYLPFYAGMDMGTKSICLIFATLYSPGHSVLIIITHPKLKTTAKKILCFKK
Experiment: Calcium imaging assay (FLIPR), HEK293T-Gα16gust44 cells transfected with human TAS2R4
Format: cell-based
Summary of the method: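 Bile acids from DMSO stocks are applied to dye-loaded cells one day after transient receptor transfection, and calcium-dependent fluorescence is recorded. Maximum signal is standardized to basal and normalized to buffer-only wells, with empty-vector signal subtracted.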

Efficacy = maximal amplitude (ΔF/F) (TAS2R4, bile acids, mean): 0.07236 | Efficacy (maximal amplitude ΔF/F), individual data points (TAS2R4, bile acids, single replicates, listed as UDCA): 0.07954 and 0.05089 and 0.08665 | Δ F/F (TAS2R4, conc. 0,01 mM): 0.05163 | Δ F/F (TAS2R4, conc. 0,03 mM): 0.07236 | Δ F/F (TAS2R4, conc. 0,00003 mM): 0.00102 | Δ F/F (TAS2R4, conc. 0,0001 mM): 0.006537 | Δ F/F (TAS2R4, conc. 0,0003 mM): -0.0004307 | Δ F/F (TAS2R4, conc. 0,001 mM): 0.008217 | Δ F/F (TAS2R4, conc. 0,003 mM): 0.01726 | RLU, fluorescence trace (Time (s) 0): 0 RLU | RLU, fluorescence trace (Time (s) 2): -16.0588 RLU | RLU, fluorescence trace (Time (s) 4): 1.8572 RLU | RLU, fluorescence trace (Time (s) 6): -24.0432 RLU | RLU, fluorescence trace (Time (s) 8): -15.0627 RLU | RLU, fluorescence trace (Time (s) 12): -11.1029 RLU | RLU, fluorescence trace (Time (s) 14): -16.031 RLU | RLU, fluorescence trace (Time (s) 16): -22.0279 RLU | RLU, fluorescence trace (Time (s) 18): -16.0557 RLU | RLU, fluorescence trace (Time (s) 18.766 (TCA, TLCA: 18.782)): -31 RLU | RLU, fluorescence trace (Time (s) 20.781 (TCA, TLCA: 20.782)): -77.5296 RLU | RLU, fluorescence trace (Time (s) 22.781 (TCA, TLCA: 22.782)): -20.8274 RLU | RLU, fluorescence trace (Time (s) 24.781 (TCA, TLCA: 24.782)): 13.5346 RLU | RLU, fluorescence trace (Time (s) 26.781 (TCA, TLCA: 26.782)): 47.9642 RLU | RLU, fluorescence trace (Time (s) 28.781 (TCA, TLCA: 28.782)): 73.9776 RLU | RLU, fluorescence trace (Time (s) 30.781 (TCA, TLCA: 30.782)): 141.824 RLU | RLU, fluorescence trace (Time (s) 32.781 (TCA, TLCA: 32.782)): 170.961 RLU | RLU, fluorescence trace (Time (s) 34.781 (TCA, TLCA: 34.782)): 211.304 RLU | RLU, fluorescence trace (Time (s) 36.781 (TCA, TLCA: 36.782)): 286.431 RLU | RLU, fluorescence trace (Time (s) 38.781 (TCA, TLCA: 38.782)): 316.3 RLU | RLU, fluorescence trace (Time (s) 40.781 (TCA, TLCA: 40.782)): 327.594 RLU | RLU, fluorescence trace (Time (s) 42.781 (TCA, TLCA: 42.782)): 352.031 RLU | RLU, fluorescence trace (Time (s) 44.781 (TCA, TLCA: 44.782)): 380.127 RLU | RLU, fluorescence trace (Time (s) 46.781 (TCA, TLCA: 46.782)): 405.893 RLU | RLU, fluorescence trace (Time (s) 48.781 (TCA, TLCA: 48.782)): 396.948 RLU | RLU, fluorescence trace (Time (s) 50.781 (TCA, TLCA: 50.782)): 411.019 RLU | RLU, fluorescence trace (Time (s) 52.781 (TCA, TLCA: 52.782)): 398.089 RLU | RLU, fluorescence trace (Time (s) 54.781 (TCA, TLCA: 54.782)): 413.206 RLU | RLU, fluorescence trace (Time (s) 56.781 (TCA, TLCA: 56.782)): 434.735 RLU | RLU, fluorescence trace (Time (s) 58.781 (TCA, TLCA: 58.782)): 418.956 RLU | RLU, fluorescence trace (Time (s) 60.781 (TCA, TLCA: 60.782)): 389 RLU | RLU, fluorescence trace (Time (s) 62.781 (TCA, TLCA: 62.782)): 407.272 RLU | RLU, fluorescence trace (Time (s) 64.781 (TCA, TLCA: 64.782)): 410.187 RLU | RLU, fluorescence trace (Time (s) 66.781 (TCA, TLCA: 66.782)): 395 RLU | RLU, fluorescence trace (Time (s) 68.781 (TCA, TLCA: 68.782)): 396.708 RLU | RLU, fluorescence trace (Time (s) 70.781 (TCA, TLCA: 70.782)): 394.232 RLU | RLU, fluorescence trace (Time (s) 72.781 (TCA, TLCA: 72.782)): 389.174 RLU | RLU, fluorescence trace (Time (s) 74.781 (TCA, TLCA: 74.782)): 367.247 RLU | RLU, fluorescence trace (Time (s) 76.781 (TCA, TLCA: 76.782)): 368.083 RLU | RLU, fluorescence trace (Time (s) 78.781 (TCA, TLCA: 78.782)): 368.91 RLU | RLU, fluorescence trace (Time (s) 80.781 (TCA, TLCA: 80.782)): 354 RLU | RLU, fluorescence trace (Time (s) 82.781 (TCA, TLCA: 82.782)): 345.234 RLU | RLU, fluorescence trace (Time (s) 84.781 (TCA, TLCA: 84.782)): 349.472 RLU | RLU, fluorescence trace (Time (s) 86.781 (TCA, TLCA: 86.782)): 337.61 RLU | RLU, fluorescence trace (Time (s) 88.781 (TCA, TLCA: 88.782)): 322.366 RLU | RLU, fluorescence trace (Time (s) 90.781 (TCA, TLCA: 90.782)): 310.929 RLU | RLU, fluorescence trace (Time (s) 92.781 (TCA, TLCA: 92.782)): 320.728 RLU | RLU, fluorescence trace (Time (s) 94.781 (TCA, TLCA: 94.782)): 299.044 RLU | RLU, fluorescence trace (Time (s) 96.781 (TCA, TLCA: 96.782)): 305.557 RLU | RLU, fluorescence trace (Time (s) 98.781 (TCA, TLCA: 98.782)): 298.819 RLU | RLU, fluorescence trace (Time (s) 100.781 (TCA, TLCA: 100.782)): 293.739 RLU | RLU, fluorescence trace (Time (s) 102.781 (TCA, TLCA: 102.782)): 282.259 RLU | RLU, fluorescence trace (Time (s) 104.781 (TCA, TLCA: 104.782)): 266.754 RLU | RLU, fluorescence trace (Time (s) 106.781 (TCA, TLCA: 106.782)): 276.382 RLU | RLU, fluorescence trace (Time (s) 108.781 (TCA, TLCA: 108.782)): 259.159 RLU | RLU, fluorescence trace (Time (s) 110.781 (TCA, TLCA: 110.782)): 276.445 RLU | RLU, fluorescence trace (Time (s) 112.781 (TCA, TLCA: 112.782)): 267.37 RLU | RLU, fluorescence trace (Time (s) 114.781 (TCA, TLCA: 114.782)): 253.353 RLU | RLU, fluorescence trace (Time (s) 116.781 (TCA, TLCA: 116.782)): 251.234 RLU | RLU, fluorescence trace (Time (s) 118.781 (TCA, TLCA: 118.782)): 253.766 RLU | RLU, fluorescence trace (Time (s) 120.781 (TCA, TLCA: 120.782)): 230.621 RLU | RLU, fluorescence trace (Time (s) 122.781 (TCA, TLCA: 122.782)): 238.721 RLU | RLU, fluorescence trace (Time (s) 124.781 (TCA, TLCA: 124.782)): 218.638 RLU | RLU, fluorescence trace (Time (s) 126.781 (TCA, TLCA: 126.782)): 215.286 RLU | RLU, fluorescence trace (Time (s) 128.781 (TCA, TLCA: 128.782)): 226.16 RLU | RLU, fluorescence trace (Time (s) 130.781 (TCA, TLCA: 130.782)): 229.593 RLU | RLU, fluorescence trace (Time (s) 132.781 (TCA, TLCA: 132.782)): 216.307 RLU | RLU, fluorescence trace (Time (s) 134.781 (TCA, TLCA: 134.782)): 209.298 RLU | RLU, fluorescence trace (Time (s) 136.781 (TCA, TLCA: 136.782)): 214.712 RLU | RLU, fluorescence trace (Time (s) 137.547): 211.548 RLU | RLU, fluorescence trace (Time (s) 143.547): 195.123 RLU | RLU, fluorescence trace (Time (s) 149.547): 191.876 RLU | RLU, fluorescence trace (Time (s) 155.547): 182.53 RLU | RLU, fluorescence trace (Time (s) 161.547): 172.093 RLU | RLU, fluorescence trace (Time (s) 167.547): 173.823 RLU | RLU, fluorescence trace (Time (s) 173.547): 178.999 RLU | RLU, fluorescence trace (Time (s) 179.547): 149.456 RLU | RLU, fluorescence trace (Time (s) 185.547): 128.186 RLU | RLU, fluorescence trace (Time (s) 191.547): 150.92 RLU | RLU, fluorescence trace (Time (s) 197.547): 155.041 RLU | RLU, fluorescence trace (Time (s) 203.547): 152.046 RLU | RLU, fluorescence trace (Time (s) 209.547): 155.822 RLU | RLU, fluorescence trace (Time (s) 215.547): 146.722 RLU | RLU, fluorescence trace (Time (s) 221.547): 144.396 RLU | RLU, fluorescence trace (Time (s) 227.547): 187.605 RLU | RLU, fluorescence trace (Time (s) 233.547): 160.672 RLU | RLU, fluorescence trace (Time (s) 239.547): 166.203 RLU | RLU, fluorescence trace (Time (s) 245.547): 147.048 RLU | RLU, fluorescence trace (Time (s) 293.547): 162.322 RLU | RLU, fluorescence trace (Time (s) 299.547): 130.446 RLU | RLU, fluorescence trace (Time (s) 305.547): 132.691 RLU | RLU, fluorescence trace (Time (s) 311.547): 138.907 RLU | RLU, fluorescence trace (Time (s) 317.547): 111.452 RLU | RLU, fluorescence trace (Time (s) 323.547): 135.942 RLU | RLU, fluorescence trace (Time (s) 329.547): 131.935 RLU | RLU, fluorescence trace (Time (s) 335.547): 149.888 RLU | RLU, fluorescence trace (Time (s) 341.547): 132.356 RLU | RLU, fluorescence trace (Time (s) 347.547): 117.981 RLU | RLU, fluorescence trace (Time (s) 353.547): 135.981 RLU | RLU, fluorescence trace (Time (s) 359.547): 144.823 RLU | Activation threshold concentration TAS2R4 (lowest concentration with significantly increased fluorescence vs empty vector (p < 0.01)): 3 µM
Structure (SMILES): C[C@H](CCC(=O)O)[C@H]1CC[C@H]2[C@@H]3[C@@H](O)C[C@@H]4C[C@H](O)CC[C@]4(C)[C@H]3CC[C@]12C [Ursodeoxycholic Acid, ursodeoxycholic acid]

From PMC10247784, “Physiological activation of human and mouse bitter taste receptors by bile acids” (Communications Biology, 2023)
